Measured values as given in US11440913B2, “Aminoimidazopyridazines as kinase inhibitors” (BRISTOL-MYERS SQUIBB COMPANY, priority 2017, dated 2022).
pIC50: −log10 of the molar value.

Columns and labels:
[1] = target: His-GST-TVMV-hRIPK1(1-324) (Homo sapiens (Human), UniProt Q13546); test: RIPK1 HTRF Binding Assay; settings: HTRF binding, 1 h at rt; read-out: RIPK1 (IC50)
Procedure, shortened: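 HTRF probe-displacement binding: 1 nM His-GST-TVMV-hRIPK1(1-324) (baculovirus construct), 90.6 nM probe, 0.2 nM anti-GST-Tb in 20 mM HEPES, 10 mM MgCl2, 0.015% Brij-35, 4 mM DTT, 0.05 mg/mL BSA. Incubated 1 h at rt; FRET 520/495 nm ratio, inhibition relative to DMSO-only wells.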

[2] = system: MLKL phosphorylation in HT29-L23 human colorectal adenocarcinoma cells; test: MLKL Phosphorylation High-Content Assay; format: cell-based; settings: Homo sapiens, 6 h, necroptosis induced with TNFα, SMAC mimetic and Z-VAD, read-out: pMLKL (IC50)
Procedure, shortened: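 HT29-L23 cells pretreated 30 min at 37 °C with compound (6.25 to 0.106 μM final), then necroptosis induced with TNFα 35 ng/mL, SMAC mimetic 700 nM and Z-VAD 140 nM for 6 h. Fixed cells immunostained for MLKL pS358 and imaged; IC50 and Ymax from 4-parameter logistic fit.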

His-GST-TVMV-hRIPK1(1-324), sequence (Q13546 1-324): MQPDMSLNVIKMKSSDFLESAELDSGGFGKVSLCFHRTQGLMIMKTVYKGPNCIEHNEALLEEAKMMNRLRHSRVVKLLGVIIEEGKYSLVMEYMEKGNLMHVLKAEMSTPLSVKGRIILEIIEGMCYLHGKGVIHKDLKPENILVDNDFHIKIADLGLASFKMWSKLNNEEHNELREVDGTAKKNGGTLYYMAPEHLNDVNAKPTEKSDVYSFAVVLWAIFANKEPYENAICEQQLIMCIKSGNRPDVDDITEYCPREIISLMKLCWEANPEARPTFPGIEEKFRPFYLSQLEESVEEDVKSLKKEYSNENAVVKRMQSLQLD

CC(=O)Nc1cn2nc(-c3cnc(C)c(C(=O)NCc4cc(-c5cnn(C)c5)ccc4F)c3)ccc2n1 [Example 352, 5-{2-acetamidoimidazo[1,2-b]pyridazin-6-yl}-N-{[2-fluoro-5-(1-methyl-1H-pyrazol-4-yl)phenyl]methyl}-2-methylpyridine-3-carboxamide]
pIC50 [1]: 6.90
pIC50 [2]: 6.40
